≈ marks a conversion by molar mass, not a printed value. Read-outs that look alike come from different tables or passages of the source. Marks after values point to notes of the source that are not given here.
What was measured:
[1] = tested on: PA01 Pseudomonas aeruginosa ATCC 15692; experiment: MIC assay, two-fold antibiotic dilutions in CAMHB with alginate oligomer, no visible growth; type: cell-based; conditions: Pseudomonas aeruginosa, ATCC15692, Table 1, PA01, read-out: MIC
[2] = tested on: Pseudomonas aeruginosa ATCC 39324, mucoid type strain (R79); experiment: MIC assay, CAMHB with alginate oligomer, no visible growth; type: cell-based; conditions: Pseudomonas aeruginosa, ATCC39324, Table 1, R79, read-out: MIC
[3] = tested on: Pseudomonas aeruginosa CFA 24-1, clinical mucoid strain (R80); experiment: as above; type: cell-based; conditions: Pseudomonas aeruginosa, Table 1, R80, read-out: MIC
[4] = tested on: V9 (Egypt) Acinetobacter baumannii; experiment: as above; type: cell-based; conditions: Table 5, V9 MDR Acin. baum
[5] = tested on: V12 5725 (Wales) Klebsiella pneumoniae; experiment: as above; type: cell-based; conditions: Table 5, V12 MDR Kleb pneu
[6] = tested on: MDR Providencia stuartii; experiment: MIC-assay, Mueller-Hinton broth with G-block alginate, 384-well, OD600 (Table 11); type: cell-based; conditions: Providencia stuartii (IR57 India, V7) MDR
From the text: (§1) Minimum inhibitory concentration (MICs) of different antibiotics for strains of E. coli and Providencia stuartii displaying MDR phenotypes in the presence of varying concentrations of OligoCF-5/20 (0-10%). (MIC values are expressed in μg ml^−1).

[7] = tested on: strains of E. coli displaying MDR phenotypes; experiment: as above; type: cell-based; conditions: Escherichia coli, Escherichia coli (5702, Wales, V11) MDR, read-out: MIC
From the text: as §1

[8] = tested on: Staphylococcus aureus (MRSA) U50; experiment: MIC-assay, Mueller-Hinton broth with G-block alginate, 384-well, OD600 (Table 12); type: cell-based; conditions: MRSA 1040s, U50 MDR, read-out: MIC
From the text: (§2) Minimum inhibitory concentration (MICs) of different antibiotics for strains of Streptococcus oralis and Staphylococcus aureus (MRSA) displaying MDR phenotypes in the presence of varying concentrations of OligoCF-5/20 (0-10%). (MIC values are expressed in μg ml^−1).

[9] = tested on: Streptococcus oralis; experiment: as above; type: cell-based; conditions: Streptococcus oralis (5610, V17) MDR, read-out: MIC
From the text: as §2

[10] = tested on: Pseudomonas aeruginosa (MDR 301, PSA, V2); experiment: MIC-assay, Mueller-Hinton broth with G-block alginate, 384-well, OD600; conditions: Pseudomonas aeruginosa, Table 8, V2
[11] = tested on: Pseudomonas aeruginosa (R22, PSA, V1); experiment: as above
[12] = tested on: Burkholderia cepacia (LMG18941, ATCC-BAA-246); experiment: as above
[13] = tested on: Acinetobacter lwoffii (6056, V22); experiment: as above
[14] = tested on: Acinetobacter baumannii (MDR ACB, Libya, V4); experiment: as above
[15] = tested on: Acinetobacter lwoffii (Egypt, V10); experiment: as above
[16] = Table 9, G-block (OligoCF-5/20) 0%
[17] = Table 9, G-block (OligoCF-5/20) 2%
[18] = Table 9, G-block (OligoCF-5/20) 6%
[19] = Table 9, G-block (OligoCF-5/20) 10%

`CN(C)[C@@H]1C(O)=C(C(N)=O)C(=O)[C@@]2(O)C(O)=C3C(=O)c4c(O)cccc4[C@@](C)(O)[C@H]3[C@H](O)[C@@H]12` [Oxytetracycline] showed an MIC ([1]; OligoCF-5/20 0G) of 8 µg/mL (≈ 17.4 µM), an MIC ([1]; OligoCF-5/20 +2% G) of 4 µg/mL (≈ 8.69 µM) and an MIC ([1]; OligoCF-5/20 +6% G) of 4 µg/mL (≈ 8.69 µM). For the same molecule, the MIC ([1]; OligoCF-5/20 +10% G) was 4 µg/mL (≈ 8.69 µM), the MIC ([2]; OligoCF-5/20 0G) was 8 µg/mL (≈ 17.4 µM) and the MIC ([2]; OligoCF-5/20 +2% G) was 4 µg/mL (≈ 8.69 µM). It also gave an MIC ([2]; OligoCF-5/20 +6% G) of 4 µg/mL (≈ 8.69 µM), an MIC ([2]; OligoCF-5/20 +10% G) of 2 µg/mL (≈ 4.34 µM) and an MIC ([3]; OligoCF-5/20 0G) of 8 µg/mL (≈ 17.4 µM). The MIC ([3]; OligoCF-5/20 +2% G) was 8 µg/mL (≈ 17.4 µM), the MIC ([3]; OligoCF-5/20 +6% G) was 4 µg/mL (≈ 8.69 µM) and the MIC ([3]; OligoCF-5/20 +10% G) was 4 µg/mL (≈ 8.69 µM). The MIC ([4]; Acinetobacter baumannii, OligoCF-5/20 0G, read-out: MIC) was 2 µg/mL (≈ 4.34 µM), the MIC ([4]; OligoCF-5/20 +2% G) was 2 µg/mL (≈ 4.34 µM) and the MIC ([4]; OligoCF-5/20 +6% G) was 1^† μg/ml. The MIC ([4]; OligoCF-5/20 +10% G) was 4^‡ μg/ml, the MIC ([5]; Klebsiella pneumoniae, OligoCF-5/20 0G, read-out: MIC) was 1 µg/mL (≈ 2.17 µM) and the MIC ([5]; OligoCF-5/20 +2% G) was 1 µg/mL (≈ 2.17 µM). The MIC ([5]; OligoCF-5/20 +6% G) was 1 µg/mL (≈ 2.17 µM), the MIC ([5]; OligoCF-5/20 +10% G) was 1 µg/mL (≈ 2.17 µM) and the MIC ([6]; G-block (OligoCF-5/20) 0%) was 128 µg/mL (≈ 278 µM). It also gave an MIC ([6]; G-block (OligoCF-5/20) 2%) of 128 µg/mL (≈ 278 µM), an MIC ([6]; G-block (OligoCF-5/20) 6%) of 128 µg/mL (≈ 278 µM) and an MIC ([6]; G-block (OligoCF-5/20) 10%) of 128 µg/mL (≈ 278 µM). It also gave an MIC ([7]; G-block (OligoCF-5/20) 0%) of 0.5 µg/mL (≈ 1.09 µM), an MIC ([7]; G-block (OligoCF-5/20) 2%) of 0.5 µg/mL (≈ 1.09 µM) and an MIC ([7]; G-block (OligoCF-5/20) 6%) of 0.5 µg/mL (≈ 1.09 µM). The MIC ([7]; G-block (OligoCF-5/20) 10%) was 0.25 µg/mL (≈ 0.543 µM), the MIC ([8]; G-block (OligoCF-5/20) 0%) was 2 µg/mL (≈ 4.34 µM) and the MIC ([8]; G-block (OligoCF-5/20) 2%) was 2 µg/mL (≈ 4.34 µM). For the same molecule, the MIC ([8]; G-block (OligoCF-5/20) 6%) was 1 µg/mL (≈ 2.17 µM), the MIC ([8]; G-block (OligoCF-5/20) 10%) was 0.5 µg/mL (≈ 1.09 µM) and the MIC ([9]; G-block (OligoCF-5/20) 0%) was under 0.25 µg/mL. It also gave an MIC ([9]; G-block (OligoCF-5/20) 2%) of under 0.25 µg/mL, an MIC ([9]; G-block (OligoCF-5/20) 6%) of 0.5 µg/mL (≈ 1.09 µM) and an MIC ([9]; G-block (OligoCF-5/20) 10%) of under 0.25 µg/mL. The MIC ([10]; G-block (OligoCF-5/20) 0%) was 16 µg/mL (≈ 34.7 µM), the MIC ([10]; G-block (OligoCF-5/20) 2%) was 16 µg/mL (≈ 34.7 µM) and the MIC ([10]; G-block (OligoCF-5/20) 6%) was 8 µg/mL (≈ 17.4 µM). The MIC ([10]; G-block (OligoCF-5/20) 10%) was 8 µg/mL (≈ 17.4 µM), the MIC ([11]; Table 8, G-block (OligoCF-5/20) 0%) was over 128 µg/mL and the MIC ([11]; Table 8, G-block (OligoCF-5/20) 2%) was over 128 µg/mL. For the same molecule, the MIC ([11]; Table 8, G-block (OligoCF-5/20) 6%) was over 128 µg/mL, the MIC ([11]; Table 8, G-block (OligoCF-5/20) 10%) was over 128 µg/mL and the MIC ([12]; ATCCBAA246|LMG18941, Table 8, G-block (OligoCF-5/20) 0%) was 32 µg/mL (≈ 69.5 µM). It also gave an MIC ([12]; ATCCBAA246|LMG18941, Table 8, G-block (OligoCF-5/20) 2%) of 16 µg/mL (≈ 34.7 µM), an MIC ([12]; ATCCBAA246|LMG18941, Table 8, G-block (OligoCF-5/20) 6%) of 32 µg/mL (≈ 69.5 µM) and an MIC ([12]; ATCCBAA246|LMG18941, Table 8, G-block (OligoCF-5/20) 10%) of 32 µg/mL (≈ 69.5 µM). For the same molecule, the MIC [13, 16] was under 2 µg/mL, the MIC [13, 17] was under 2 µg/mL and the MIC [13, 18] was under 2 µg/mL. It also gave an MIC [13, 19] of under 2 µg/mL, an MIC [14, 16] of 2 µg/mL (≈ 4.34 µM) and an MIC [14, 17] of 2 µg/mL (≈ 4.34 µM). For the same molecule, the MIC [14, 18] was 2 µg/mL (≈ 4.34 µM), the MIC [14, 19] was 1 µg/mL (≈ 2.17 µM) and the MIC [15, 16] was 0.5 µg/mL (≈ 1.09 µM). It also gave an MIC [15, 17] of 0.5 µg/mL (≈ 1.09 µM), an MIC [15, 18] of 0.5 µg/mL (≈ 1.09 µM) and an MIC [15, 19] of 0.5 µg/mL (≈ 1.09 µM).
